Tests used:
Assay type in all cases: biochemical
[1] = molecular target: T1, JAK2V617F (Homo sapiens, UniProt O60674, V617F); assay: JAK2V617F microfluidic kinase assay (Caliper EZ Reader II, FAM labeled peptide substrate); conditions: JAK2V617F 2.5 nM, 1 mM ATP
T1 construct: purchased Carna Biosciences
Experimental: Compounds were tested against JAK1, JAK2, JAK2V617F and TYK2. Assay Formats: JAK activity was determined in the reaction buffer 50 mM HEPES, 0.01% Brij35, 10 mM MgCl2, 2 mM DTT by a microfluidic assay. The phosphorylation of a FAM labeled peptide substrate was monitored in the Caliper EZ Reader II (Perkin Elmer). The assay condition for each batch of enzyme (Carna Biosciences) was optimized to obtain 10% conversion rate of peptide substrate. The test compounds were dissolved in DMSO to a stock concentration of 10 mM. 3-fold serially diluted compounds with top concentration of 5 μM were pre-incubated with JAK1, JAK2, JAK2V617F or TYK2 at indicated concentrations for 10 min at ambient temperature. The final DMSO concentration of assay mixture was 1%. […] The reaction was stopped by adding 50 mM EDTA. […] The percent inhibition was calculated by the following formula. % Inhibition=(Conversionmax−Conversionsample)/(Conversionmax−Conversionmin)*100 • Conversionmax means the conversion rate in the positive well without addition of compound • Conversionmin means the conversion rate in the well without addition of enzyme • Conversionsample means the conversion rate of test compounds The dose-response (percent inhibition) curve was plotted and IC50 values were determined by GraphPad software.

[2] = molecular target: T2, JAK1 (Homo sapiens, UniProt P23458); assay: JAK1 microfluidic kinase assay (Caliper EZ Reader II, FAM labeled peptide substrate)
T2 construct: purchased Carna Biosciences
Summary of the method: (§1)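 Compounds, serially diluted 3-fold from 5 μM, were preincubated 10 min with enzyme at ambient temperature before reaction in HEPES/Brij35/MgCl2/DTT buffer (1% DMSO final), tuned to 10% peptide conversion. After EDTA stop, FAM-peptide phosphorylation was measured by Caliper EZ Reader II; IC50 fitted from percent-inhibition curves.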

[3] = molecular target: T3, JAK2 (Homo sapiens, UniProt O60674); assay: JAK2 microfluidic kinase assay (Caliper EZ Reader II, FAM labeled peptide substrate)
T3 construct: purchased Carna Biosciences
Summary of the method: as §1

[4] = molecular target: T4, TYK2 (Homo sapiens, UniProt P29597); assay: TYK2 microfluidic kinase assay (Caliper EZ Reader II, FAM labeled peptide substrate); conditions: IC50 TYK2 (10 nM) (Km ATP), TYK2 10 nM, Km ATP
T4 construct: purchased Carna Biosciences
Experimental: Compounds were tested against JAK1, JAK2, JAK2V617F and TYK2. Assay Formats: JAK activity was determined in the reaction buffer 50 mM HEPES, 0.01% Brij35, 10 mM MgCl2, 2 mM DTT by a microfluidic assay. The phosphorylation of a FAM labeled peptide substrate was monitored in the Caliper EZ Reader II (Perkin Elmer). The assay condition for each batch of enzyme (Carna Biosciences) was optimized to obtain 10% conversion rate of peptide substrate. The test compounds were dissolved in DMSO to a stock concentration of 10 mM. 3-fold serially diluted compounds with top concentration of 5 μM were pre-incubated with JAK1, JAK2, JAK2V617F or TYK2 at indicated concentrations for 10 min at ambient temperature. The final DMSO concentration of assay mixture was 1%. […] The reaction was stopped by adding 50 mM EDTA. The reaction time for JAK1, JAK2, JAK2V617F and TYK2 was 120 min, 20 min, 30 min and 10 min, respectively. […] And the well without compound but with equivalent DMSO was defined as no inhibition. The percent inhibition was calculated by the following formula. % Inhibition=(Conversionmax−Conversionsample)/(Conversionmax−Conversionmin)*100 • Conversionmax means the conversion rate in the positive well without addition of compound • Conversionmin means the conversion rate in the well without addition of enzyme • Conversionsample means the conversion rate of test compounds The dose-response (percent inhibition) curve was plotted and IC50 values were determined by GraphPad software.

[5] = IC50 JAK1 (5 nM) (1 m MATP), JAK1 5 nM, 1 mM ATP
[6] = IC50 JAK2 ([…]) (1 mM ATP), 1 mM ATP
[7] = IC50 JAK2 ([…]) (Km ATP), Km ATP

T2 sequence (P23458 whole entry): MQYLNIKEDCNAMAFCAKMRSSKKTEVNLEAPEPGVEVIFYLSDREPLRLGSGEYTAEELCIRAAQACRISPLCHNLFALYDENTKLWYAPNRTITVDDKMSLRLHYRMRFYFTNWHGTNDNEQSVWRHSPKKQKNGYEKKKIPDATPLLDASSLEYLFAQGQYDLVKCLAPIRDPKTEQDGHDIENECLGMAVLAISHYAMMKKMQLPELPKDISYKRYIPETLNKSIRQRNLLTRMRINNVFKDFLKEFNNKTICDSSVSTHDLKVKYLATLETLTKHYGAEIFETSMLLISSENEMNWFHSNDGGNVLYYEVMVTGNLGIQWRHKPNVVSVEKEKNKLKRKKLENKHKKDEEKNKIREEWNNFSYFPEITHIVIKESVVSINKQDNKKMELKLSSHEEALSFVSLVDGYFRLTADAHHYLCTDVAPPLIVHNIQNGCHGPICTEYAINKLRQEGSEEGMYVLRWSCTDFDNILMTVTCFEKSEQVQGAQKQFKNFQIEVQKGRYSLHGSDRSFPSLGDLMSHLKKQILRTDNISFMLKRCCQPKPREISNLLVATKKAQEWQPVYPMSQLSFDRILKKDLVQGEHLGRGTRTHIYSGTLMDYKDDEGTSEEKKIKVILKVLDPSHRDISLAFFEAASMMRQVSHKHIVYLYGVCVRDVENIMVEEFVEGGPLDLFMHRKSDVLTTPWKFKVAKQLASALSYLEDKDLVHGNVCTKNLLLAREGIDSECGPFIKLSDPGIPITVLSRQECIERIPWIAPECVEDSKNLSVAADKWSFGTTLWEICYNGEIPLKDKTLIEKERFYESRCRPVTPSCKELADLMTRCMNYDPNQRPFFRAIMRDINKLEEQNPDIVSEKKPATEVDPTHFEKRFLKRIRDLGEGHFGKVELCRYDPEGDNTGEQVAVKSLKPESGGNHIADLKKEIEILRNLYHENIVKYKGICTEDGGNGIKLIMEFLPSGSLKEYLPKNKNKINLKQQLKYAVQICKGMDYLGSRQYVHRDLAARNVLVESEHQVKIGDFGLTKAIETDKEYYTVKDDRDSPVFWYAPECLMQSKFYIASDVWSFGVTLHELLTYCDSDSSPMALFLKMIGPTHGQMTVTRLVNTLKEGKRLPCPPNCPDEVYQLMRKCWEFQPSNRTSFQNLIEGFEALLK
T3 sequence (O60674 whole entry): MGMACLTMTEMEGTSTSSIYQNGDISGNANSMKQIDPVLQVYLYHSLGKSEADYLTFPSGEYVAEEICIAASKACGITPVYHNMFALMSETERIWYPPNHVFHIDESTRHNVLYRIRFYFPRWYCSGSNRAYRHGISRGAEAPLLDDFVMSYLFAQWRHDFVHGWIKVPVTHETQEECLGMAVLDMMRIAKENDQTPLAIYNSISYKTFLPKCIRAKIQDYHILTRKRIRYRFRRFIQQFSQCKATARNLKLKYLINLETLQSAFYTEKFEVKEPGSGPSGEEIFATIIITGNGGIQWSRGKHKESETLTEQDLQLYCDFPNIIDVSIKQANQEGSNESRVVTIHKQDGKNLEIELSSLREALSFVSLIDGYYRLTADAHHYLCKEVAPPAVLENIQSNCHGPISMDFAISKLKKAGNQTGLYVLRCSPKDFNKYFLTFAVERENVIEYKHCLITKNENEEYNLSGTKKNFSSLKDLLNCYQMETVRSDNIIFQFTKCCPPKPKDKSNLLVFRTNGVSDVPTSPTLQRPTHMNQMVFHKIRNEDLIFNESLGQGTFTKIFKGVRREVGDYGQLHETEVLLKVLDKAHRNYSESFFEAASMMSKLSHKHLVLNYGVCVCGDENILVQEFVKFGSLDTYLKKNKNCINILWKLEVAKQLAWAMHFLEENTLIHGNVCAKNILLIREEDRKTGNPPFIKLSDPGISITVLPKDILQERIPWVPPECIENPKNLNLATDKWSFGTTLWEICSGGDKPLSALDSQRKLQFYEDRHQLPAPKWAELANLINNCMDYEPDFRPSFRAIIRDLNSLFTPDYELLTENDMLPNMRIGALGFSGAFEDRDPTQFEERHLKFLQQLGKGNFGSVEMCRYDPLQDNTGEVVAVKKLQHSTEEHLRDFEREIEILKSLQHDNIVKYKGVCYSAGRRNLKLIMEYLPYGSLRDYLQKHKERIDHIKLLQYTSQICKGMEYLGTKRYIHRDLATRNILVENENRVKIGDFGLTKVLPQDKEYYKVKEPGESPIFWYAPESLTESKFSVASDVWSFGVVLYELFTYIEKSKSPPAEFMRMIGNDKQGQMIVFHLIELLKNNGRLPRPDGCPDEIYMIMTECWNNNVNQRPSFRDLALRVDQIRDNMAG
T1 sequence (O60674 whole entry V617F): as the sequence (O60674 whole entry) above, with V617F counted along it
T4 sequence (P29597 whole entry): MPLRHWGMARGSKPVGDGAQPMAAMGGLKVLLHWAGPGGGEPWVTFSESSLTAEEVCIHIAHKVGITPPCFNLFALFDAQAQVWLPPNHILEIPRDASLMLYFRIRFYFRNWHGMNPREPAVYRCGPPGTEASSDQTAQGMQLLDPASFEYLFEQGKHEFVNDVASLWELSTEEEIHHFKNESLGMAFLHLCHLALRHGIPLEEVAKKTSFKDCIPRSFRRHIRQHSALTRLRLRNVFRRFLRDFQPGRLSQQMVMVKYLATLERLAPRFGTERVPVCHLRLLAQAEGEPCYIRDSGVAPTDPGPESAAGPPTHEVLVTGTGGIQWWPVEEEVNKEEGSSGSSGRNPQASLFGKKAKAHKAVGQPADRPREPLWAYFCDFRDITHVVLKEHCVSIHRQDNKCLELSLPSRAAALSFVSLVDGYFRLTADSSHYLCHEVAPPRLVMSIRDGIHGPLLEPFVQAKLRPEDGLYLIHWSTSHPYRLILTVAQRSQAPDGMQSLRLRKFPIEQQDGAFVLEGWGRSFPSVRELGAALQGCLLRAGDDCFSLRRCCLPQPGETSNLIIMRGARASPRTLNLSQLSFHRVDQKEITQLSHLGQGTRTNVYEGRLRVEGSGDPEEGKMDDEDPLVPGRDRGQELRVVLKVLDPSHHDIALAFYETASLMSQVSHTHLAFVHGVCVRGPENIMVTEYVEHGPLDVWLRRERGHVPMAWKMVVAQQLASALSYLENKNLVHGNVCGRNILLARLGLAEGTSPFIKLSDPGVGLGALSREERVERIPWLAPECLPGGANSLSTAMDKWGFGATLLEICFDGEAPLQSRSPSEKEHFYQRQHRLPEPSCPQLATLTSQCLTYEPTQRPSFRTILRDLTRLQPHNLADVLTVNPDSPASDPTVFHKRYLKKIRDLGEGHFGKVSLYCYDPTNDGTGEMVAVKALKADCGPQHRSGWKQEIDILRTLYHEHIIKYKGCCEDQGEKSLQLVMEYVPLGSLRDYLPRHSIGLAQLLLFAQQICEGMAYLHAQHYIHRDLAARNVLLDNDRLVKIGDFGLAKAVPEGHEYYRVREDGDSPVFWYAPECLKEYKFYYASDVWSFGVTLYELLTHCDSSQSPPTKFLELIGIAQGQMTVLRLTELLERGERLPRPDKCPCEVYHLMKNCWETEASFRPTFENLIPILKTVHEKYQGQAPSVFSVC

For `Cc1cnc(Nc2cnn(C3CC3)c2)nc1-c1ccc(C(=O)N[C@@H](C)C#N)c(F)c1` [Example 129, (S)—N-(1-Cyanoethyl)-4-(2-((1-cyclopropyl-1H-pyrazol-4-yl)amino)-5-methylpyrimidin-4-yl)-2-fluorobenzamide], the IC50 [1] was 118 nM, the IC50 [2, 5] was 39.9 nM and the IC50 [3, 6] was 49 nM. For the same compound, the IC50 [3, 7] was 1.6 nM.
Work on `CO[C@H]1CC[C@@H](n2cc(Nc3ncc(C)c(-c4ccc(C(=O)N[C@@H](C)C#N)cc4)n3)cn2)CC1` [Example 90, N—((S)-1-cyanoethyl)-4-(2-((1-(cis-4-methoxycyclohexyl)-1H-pyrazol-4-yl)amino)-5-methylpyrimidin-4-yl)benzamide] yielded an IC50 [1] of 34.3 nM, an IC50 [2, 5] of 13.1 nM and an IC50 [3, 6] of 0.47 nM.
With `Cc1cnc(Nc2cnn([C@H]3CC[C@H](C#N)CC3)c2)nc1-c1ccc(C(=O)NCC(F)(F)F)cc1` [Example 87, 4-(2-((1-(Trans-4-cyanocyclohexyl)-1H-pyrazol-4-yl)amino)-5-methylpyrimidin4-yl)-N-(2,2,2-trifluoroethyl)benzamide] the IC50 [1] was 0.65 nM, the IC50 [2, 5] was 9 nM and the IC50 [3, 6] was under 0.25 nM.
In the case of `C[C@H](C#N)NC(=O)c1ccc(-c2nc(Nc3cnn(C4CC4)c3)ncc2Cl)cc1` [Example 196, (R)-4-(5-chloro-2-((1-cyclopropyl-1H-pyrazol-4-yl)amino)pyrimidin-4-yl)-N-(1-cyanoethyl)benzamide], the IC50 [1] is reported as 71.6 nM, the IC50 [2, 5] is reported as 34.8 nM and the IC50 [3, 6] is reported as 41.3 nM.
Compound `Cc1cnc(Nc2cnn(C)c2)nc1-c1ccc(C(=O)N[C@H]2C[C@@H](C#N)C2)cc1` [Example 16, N-((cis)-3-Cyanocyclobutyl)-4-(5-methyl-2-((1-methyl-1H-pyrazol-4-yl)amino)pyrimidin-4-yl)benzamide] has an IC50 [1] of 796 nM, an IC50 [2, 5] of 124 nM and an IC50 [3, 7] of 13.6 nM.
For `CCCn1cc(Nc2ncc(Cl)c(-c3ccc(C(=O)N[C@@H](C)C#N)cc3)n2)cn1` [Example 227, (S)-4-(5-Chloro-2-((1-propyl-1H-pyrazol-4-yl)amino)pyrimidin-4-yl)-N-(1-cyanoethyl)benzamide], the IC50 [1] was 17.6 nM, the IC50 [2, 5] was 4.08 nM and the IC50 [3, 6] was 3.14 nM.
For `Cc1cnc(Nc2cnn(C3CCN(C(=O)C4(C(F)(F)F)CC4)CC3)c2)nc1-c1ccc(C(=O)NCC#N)cc1` [Example 115, N-(Cyanomethyl)-4-(5-methyl-2-((1-(1-(1-(trifluoromethyl)cyclopropanecarbonyl)piperidin-4-yl)-1H-pyrazol-4-yl)amino)pyrimidin-4-yl)benzamide], the IC50 [1] was 2.06 nM, the IC50 [2, 5] was 20.8 nM and the IC50 [3, 6] was under 0.25 nM. The IC50 [3, 7] was under 0.25 nM.
`Cc1cnc(Nc2cnn(C3CC3)c2)nc1-c1ccc(C(=O)N[C@@H](C)C#N)nc1` [Example 164, (S)—N-(1-cyanoethyl)-5-(2-((1-cyclopropyl-1H-pyrazol-4-yl)amino)-5-methylpyrimidin-4-yl)picolinamide] gave an IC50 [1] of 142 nM, an IC50 [2, 5] of 36.6 nM and an IC50 [3, 6] of 89.3 nM.
`CCn1cc(Nc2ncc(Cl)c(-c3ccc(C(=O)N[C@@H](C)C#N)cc3)n2)cn1` [Example 229, (S)-4-(5-Chloro-2-((1-ethyl-1H-pyrazol-4-yl)amino)pyrimidin-4-yl)-N-(1-cyanoethyl)benzamide] was tested, and the IC50 [1] was 14.1 nM, the IC50 [2, 5] was 3.68 nM and the IC50 [3, 6] was 1.68 nM.
`Cc1cnc(Nc2cnn(C3CCCCC3)c2)nc1-c1ccc(C(=O)N[C@@H](C)C#N)cc1` [Example 89, (S)—N-(1-cyanoethyl)-4-(2-((1-cyclohexyl-1H-pyrazol-4-yl)amino)-5-methylpyrimidin-4-yl)benzamide] showed an IC50 [1] of 10.1 nM, an IC50 [2, 5] of 4.78 nM and an IC50 [3, 6] of under 0.25 nM.
`Cc1cnc(Nc2cnn(C3CCN(C(=O)NC(C)(C)C)CC3)c2)nc1-c1ccc(C(=O)NCC#N)cc1` [Example 3, N-(tert-Butyl)-4-(4-((4-(4-((cyanomethyl)carbamoyl)phenyl)-5-methylpyrimidin-2-yl)amino)-1H-pyrazol-1-yl)piperidine-1-carboxamide] showed an IC50 [1] of 5.26 nM, an IC50 [2, 5] of 17.1 nM and an IC50 [3, 6] of under 0.25 nM. It also gave an IC50 [3, 7] of under 0.25 nM.
Compound `Cc1cnc(Nc2cnn(C3CC3)c2)nc1-c1ccc(C(=O)NCC2(C#N)CC2)cc1` [Example 93, N-((1-cyanocyclopropyl)methyl)-4-(2-((1-cyclopropyl-1H-pyrazol-4-yl)amino)-5-methylpyrimidin-4-yl)benzamide] has an IC50 [1] of 102 nM, an IC50 [2, 5] of 20.1 nM and an IC50 [3, 6] of 44.3 nM. For the same compound, the IC50 [3, 7] was 1.39 nM.
`Cc1cnc(Nc2cnn(C3CCOCC3)c2)nc1-c1ccc(C(=O)N2CC(C#N)C2)cc1` [Example 31, 1-(4-(5-Methyl-2-((1-(tetrahydro-2H-pyran-4-yl)-1H-pyrazol-4-yl)amino)pyrimidin-4-yl)benzoyl)azetidine-3-carbonitrile] gave an IC50 [1] of 131 nM, an IC50 [2, 5] of 235 nM and an IC50 [3, 6] of 71.7 nM. The IC50 [3, 7] was 2.07 nM.
For `Cc1cnc(Nc2cnn(C3CCN(C(=O)C4CC4(F)F)CC3)c2)nc1-c1ccc(C(=O)NCC#N)cc1` (centres unmarked) [Example 145, N-(cyanomethyl)-4-(2-((1-(1-(2,2-difluorocyclopropanecarbonyl)piperidin-4-yl)-1H-pyrazol-4-yl)amino)-5-methylpyrimidin-4-yl)benzamide], the IC50 [1] was 6.97 nM, the IC50 [2, 5] was 15.1 nM and the IC50 [3, 6] was 0.47 nM.
In the case of `Cc1cnc(Nc2cnn(C3CCN(CC(F)(F)F)CC3)c2)nc1-c1ccc(C(=O)NCC#N)cc1` [Example 22, N-(Cyanomethyl)-4-(5-methyl-2-((1-(1-(2,2,2-trifluoroethyl)piperidin-4-yl)-1H-pyrazol-4-yl)amino)pyrimidin-4-yl)benzamide], the IC50 [1] is reported as 46.1 nM, the IC50 ([2]; IC50 JAK1 (10 nM) (Km ATP), JAK1 10 nM, Km ATP) is reported as 2.37 nM and the IC50 [3, 6] is reported as 1.59 nM. For the same compound, the IC50 [3, 7] was 0.43 nM.
Work on `C[C@@H](C#N)NC(=O)c1ccc(-c2nc(Nc3cnn(C4CC4)c3)ncc2Cl)cc1F` [Example 137, (S)-4-(5-Chloro-2-((1-cyclopropyl-1H-pyrazol-4-yl)amino)pyrimidin-4-yl)-N-(1-cyanoethyl)-2-fluorobenzamide] yielded an IC50 [1] of 92.3 nM, an IC50 [2, 5] of 37 nM and an IC50 [3, 6] of 46.4 nM. It also gave an IC50 [3, 7] of 2.1 nM.
For `CC(C)n1cc(Nc2ncc(Cl)c(-c3ccc(C(=O)N[C@@H](C)C#N)cc3)n2)cn1` [Example 228, (S)-4-(5-Chloro-2-((1-isopropyl-1H-pyrazol-4-yl)amino)pyrimidin-4-yl)-N-(1-cyanoethyl)benzamide], the IC50 [1] was 22 nM, the IC50 [2, 5] was 5.89 nM and the IC50 [3, 6] was 0.39 nM.
`N#CC1CN(C(=O)c2ccc(-c3nc(Nc4cnn(C5CC5)c4)ncc3C(F)F)cc2F)C1` [Example 126, 1-(4-(2-((1-Cyclopropyl-1H-pyrazol-4-yl)amino)-5-(difluoromethyl)pyrimidin-4-yl)-2-fluorobenzoyl)azetidine-3-carbonitrile] showed an IC50 [4] of 1770 nM.
Work on `Cc1cnc(Nc2cnn(CC#N)c2)nc1-c1ccc(C(=O)N[C@@H](C)C#N)cc1` [Example 40, (S)—N-(1-cyanoethyl)-4-(2-((1-(cyanomethyl)-1H-pyrazol-4-yl)amino)-5-methylpyrimidin-4-yl)benzamide] yielded an IC50 [1] of 92.3 nM, an IC50 [2, 5] of 19.1 nM and an IC50 [3, 6] of 15 nM.
With `Cc1cnc(Nc2cnn([C@H]3CC[C@@H](C#N)CC3)c2)nc1-c1ccc(C(=O)NCC(F)(F)F)cc1` [Example 86, 4-(2-((1-(Cis-4-cyanocyclohexyl)-1H-pyrazol-4-yl)amino)-5-methylpyrimidin-4-yl)-N-(2,2,2-trifluoroethyl)benzamide] the IC50 [1] was 4.91 nM, the IC50 [2, 5] was 14.3 nM and the IC50 [3, 6] was 1.21 nM.
Compound `Cc1cnc(Nc2cnn(C3CCN(S(C)(=O)=O)CC3)c2)nc1-c1ccc(C(=O)NCC2(C#N)CC2)cc1` [Example 159, N-((1-cyanocyclopropyl)methyl)-4-(5-methyl-2-((1-(1-(methylsulfonyl)piperidin-4-yl)-1H-pyrazol-4-yl)amino)pyrimidin-4-yl)benzamide] has an IC50 [1] of 36.7 nM, an IC50 [2, 5] of 24.1 nM and an IC50 [3, 6] of 4.82 nM.
